In one data set the target is T1, Human Arginase 2 (Homo sapiens, UniProt P78540).
T1 construct: made in house; host or cells: E. coli
T1 sequence (P78540 23-354): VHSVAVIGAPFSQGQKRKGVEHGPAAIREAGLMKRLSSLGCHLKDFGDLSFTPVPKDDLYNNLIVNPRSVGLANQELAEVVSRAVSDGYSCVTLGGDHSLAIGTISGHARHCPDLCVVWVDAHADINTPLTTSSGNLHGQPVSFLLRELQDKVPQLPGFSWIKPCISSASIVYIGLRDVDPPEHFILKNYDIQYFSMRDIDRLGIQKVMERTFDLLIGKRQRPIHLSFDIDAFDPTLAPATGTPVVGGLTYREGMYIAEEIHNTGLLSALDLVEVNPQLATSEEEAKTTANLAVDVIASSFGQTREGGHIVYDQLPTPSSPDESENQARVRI
Kind of data set: Human Arginase 2 enzyme inhibition (thioarginine/DTNB absorbance at 412 nm). It counts as biochemical. Conditions: recombinant enzyme from E. coli, 5 nM; 30 min pre-incubation, 60 min reaction. From the text: (§1) The inhibitory effects of Examples 1 to 12 on the activity of Human Arginase 1 and Arginase 2 activity were quantified by measuring the formation of the thiol group from thioarginine using recombinant Arginase 1 or Arginase 2 produced from E. coli. The thiol group was detected with Ellman's reagent, 5,5′-dithiobis(2-nitrobenzoic acid) (DTNB). DTNB reacts with the thiol to give the mixed disulfide and 2-nitro-5-thiobenzoic acid (TNB) which is quantified by the absorbance of the anion (TNB^2−) at 412 nm.
(§2) The assays were run in clear 384 well plates (Greiner cat no: 781101). Various concentrations of Examples 1 to 12 in 300 nL DMSO were dispensed to assay plates using an Echo acoustic dispenser immediately followed by plate sealing and centrifugation. Two pre-mixes were prepared from reagents thawed immediately before addition to assay plates. Pre-mix one comprised human Arginase 1 or human Arginase 2, at a final concentration of 5 nM and 0.5 mM DTNB in assay buffer, 45 mM HEPES pH7.5, brij 35, 0.045% (w/v) and 100 μM MnCl2. Pre-mix two comprised freshly thawed 0.5 mM thioarginine in assay buffer. Fifteen microlitres of pre-mix one was dispensed to assay plates containing Examples 1 to 12, centrifuged and incubated for 30 minutes at room temperature prior to adding fifteen microlitres of pre-mix two.
(§3) Assay plates were centrifuged prior to reading absorbance at 412 nm in a Pherastar multi-mode plate reader to collect data at time point 0 (T0). The plates were incubated at room temperature for 60 min prior to reading again to collect data at time point 1 (T1). Data is derived by subtracting the A412 signal measured at T0 (time point 0) from that measured at T1 (time point 1). The data was transformed to % effect using the equation: Compound % effect=100*[(X−min)/(max−min)], where X represents the normalized value for the compound based on the Min (vehicle) and Max (reference compound) inhibition control.
(§4) The concentration of Examples 1 to 12 that inhibited the activity by 50% (i.e. the IC50) was calculated by plotting the % effect versus test compound concentration and fitting the data using the Genedata Screener Smart fit algorithm.

Another data set has as its target T2, Human Arginase 1 (Homo sapiens, UniProt P05089).
T2 construct: made in house; host or cells: E. coli
T2 sequence (P05089 1-322): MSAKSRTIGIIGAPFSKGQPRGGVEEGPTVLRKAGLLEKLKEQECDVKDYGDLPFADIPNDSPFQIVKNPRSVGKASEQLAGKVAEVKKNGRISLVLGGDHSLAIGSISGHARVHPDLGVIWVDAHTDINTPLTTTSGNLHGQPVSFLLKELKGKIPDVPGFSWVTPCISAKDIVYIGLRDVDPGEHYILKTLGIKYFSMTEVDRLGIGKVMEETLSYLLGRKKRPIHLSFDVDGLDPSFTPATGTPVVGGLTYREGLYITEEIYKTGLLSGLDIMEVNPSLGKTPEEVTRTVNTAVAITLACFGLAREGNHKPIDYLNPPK
The data set can be described thus: Human Arginase 1 enzyme inhibition (thioarginine/DTNB absorbance at 412 nm). In kind it is biochemical. Conditions: recombinant enzyme from E. coli, 5 nM; 30 min pre-incubation, 60 min reaction.
Excerpt: as §1, §2, §3, §4

The nature of data set [1]: Bioavailability / pharmacokinetic study in male rats (IV and PO). In kind it is in vivo. The note with it: plasma; for clearance / Vd: male rat; for bioavailability / AUC / Cmax / Tmax: male, rat, po, 5 mg/kg; for Vd: read-out: Vdss. As for the experimental part: Examples 2, 3, and 4 are prodrug forms of Example 1. […] Example 2 was formulated in 0.9% w/v saline pH 4 (adjusted with 1M HCl) for IV dosing. The formulation was dosed at 2 mg/kg by femoral catheter to two male rats each (170-250 g). Jugular vein catheter serial blood samples were taken at 0.033, 0.083, 0.167, 0.5, 1, 2, 4, 8, and 24 hrs post-dose. For PO dosing, Example 2 was formulated in deionized water pH 4 (adjusted with 1M HCl) and dosed at 5 mg/kg by oral gavage to two male rats each (170-250 g). Serial blood samples were taken by jugular vein catheter at 0.25, 0.5, 1, 1.5, 2, 3, 4, 8, and 24 hrs post dose. Plasma samples were generated from blood using low speed centrifugation. A single set of calibration standards containing Example 1 and Example 2 were prepared by spiking blank plasma. The samples and standards were extracted by precipitation with two volumes of acetonitrile followed by centrifugation. The results obtained were used to determine the Cl (mL/min/kg), Vdss (L/kg), Cmax (μM), AUC (μM h), tmax (h), and % F for both Example 1 and Example 2. Absolute bioavailability was determined by comparing the PO dose normalized AUC of Example 1 when dosed as Example 2, versus the dose normalized IV AUC of Example 1 when dosed as Example 1. Where appropriate, measured and not nominal doses were used to calculate bioavailability. In an analogous fashion, the same procedure was repeated for Examples 3 and 4.

Setting [2] is: IV 2 mg/kg, pro-drug measured when dosed as pro-drug.
[3] abbreviates: PO 5 mg/kg of Example 2, Example 1 measured when dosed as pro-drug.
Setting [4] is: PO dosing of Example 3, Example 1 measured when dosed as pro-drug.
The mark [5] stands for this setting: PO dosing of Example 4, Example 1 measured when dosed as pro-drug.
Setting [6] is: PO 5 mg/kg vs IV 2 mg/kg, pro-drug measured when dosed as pro-drug.
Setting [7] is: PO 5 mg/kg, pro-drug measured when dosed as pro-drug.

Like-named read-outs stand apart in the source and are kept apart here.

As to `CC(C)(C)[C@H](N)C(=O)N[C@H]1CCN[C@@](CCCCB(O)O)(C(=O)O)C1` [Example 8, (2R,4S)-4-[[(2S)-2-amino-3,3-dimethyl-butanoyl]amino]-2-(4-boronobutyl)piperidine-2-carboxylic acid], the IC50 at Human Arginase 2 came to 24 nM; at Human Arginase 1, 31 nM.
Turning to `CC(C)C[C@H](N)C(=O)N[C@H]1CCN[C@@](CCCCB(O)O)(C(=O)O)C1` [Example 6, (2R,4S)-4-[[(2S)-2-amino-4-methyl-pentanoyl]amino]-2-(4-boronobutyl)piperidine-2-carboxylic acid], the IC50 worked out at 15 nM at Human Arginase 2 and 18 nM at Human Arginase 1.
`C[C@H](N)C(=O)N[C@H]1CCN[C@@](CCCCB(O)O)(C(=O)O)C1` [Example 4, (2R,4S)-4-[[(2S)-2-aminopropanoyl]amino]-2-(4-boronobutyl)piperidine-2-carboxylic acid] returned a clearance in data set [1] (setting [2]) of 180 mL/min/kg. The results for the IC50 on Human Arginase 2 and at Human Arginase 1 were 27 nM and 35 nM, respectively.
`N[C@H]1CCN[C@](CCCCB(O)O)(C(=O)O)C1` (single isomer, unassigned; enantiomer 2) [Example 11, anti-4-amino-2-(4-boronobutyl)piperidine-2-carboxylic acid enantiomer 2]: the IC50 at Human Arginase 2 was found to be 4370 nM; at Human Arginase 1, 3150 nM.
On to `N[C@H]1CCN[C@@](CCCCB(O)O)(C(=O)O)C1` [Example 1, (2R,4S)-4-amino-2-(4-boronobutyl)piperidine-2-carboxylic acid], for which the bioavailability came to 82% in data set [1] (Example 1 after PO Example 2 vs IV AUC of Example 1 dosed as Example 1, dose normalized); 78% in data set [1] (Example 1 after PO Example 3 vs IV AUC of Example 1 dosed as Example 1, dose normalized); 20% in data set [1] (Example 1 after PO Example 4 vs IV AUC of Example 1 dosed as Example 1, dose normalized). Further, the AUC in data set [1] (setting [3]) turned out to be 23.7 µM·h; in data set [1] (setting [4]) it was 25.7 µM·h; in data set [1] (setting [5]), 6.1 µM·h. Besides, the Cmax is 2500 nM in data set [1] (setting [3]), 2000 nM in data set [1] (setting [4]) and 1000 nM in data set [1] (setting [5]). In addition, the Tmax in data set [1] (setting [3]) came out at 2.3 h; in data set [1] (setting [4]) it was 2.5 h; in data set [1] (setting [5]), 1.5 h. Also, the clearance in data set [1] (IV, Example 1 dosed as payload) turned out to be 8.5 mL/min/kg. Also, in data set [1] (IV, Example 1 dosed as payload), the Vd came out at 0.23 L/kg. For the same compound, the IC50 at Human Arginase 2 was determined as 4 nM; on Human Arginase 1, 3 nM.
In the case of `CC(C)[C@@H](N)C(=O)N[C@H]1CCN[C@@](CCCCB(O)O)(C(=O)O)C1` [Example 9, (2R,4S)-4-[[(2R)-2-amino-3-methyl-butanoyl]amino]-2-(4-boronobutyl)piperidine-2-carboxylic acid], the IC50 at Human Arginase 2 came out at 180 nM; at Human Arginase 1 it was 234 nM.
The corresponding values for `N[C@@H]1CCN[C@](CCCCB(O)O)(C(=O)O)C1` (single isomer, unassigned) [Example 12] are 2540 nM and 2200 nM.
The matching figures for `CC[C@H](N)C(=O)N[C@H]1CCN[C@@](CCCCB(O)O)(C(=O)O)C1` [Example 5, (2R,4S)-4-[[(2S)-2-aminobutanoyl]amino]-2-(4-boronobutyl)piperidine-2-carboxylic acid]: 21 nM and 25 nM.
`CC(C)[C@H](N)C(=O)N[C@H]1CCN[C@@](CCCCB(O)O)(C(=O)O)C1` [Example 2, (2R,4S)-4-((S)-2-amino-3-methylbutanamido)-2-(4-boronobutyl)piperidine-2-carboxylic acid] came in with a bioavailability in data set [1] (setting [6]) of 2%. Further, in data set [1] (setting [7]), the AUC is 0.29 µM·h, the Cmax was determined as 350 nM and the Tmax amounted to 0.25 h. Moreover, in data set [1] (setting [2]), the clearance was determined as 16.3 mL/min/kg and the Vd was 0.25 L/kg. In addition, the IC50 on Human Arginase 2 came out at 24 nM. Further, at Human Arginase 1, the IC50 is 29 nM.
Take `NCC(=O)N[C@H]1CCN[C@@](CCCCB(O)O)(C(=O)O)C1` [Example 3, (2R,4S)-4-(2-aminoacetamido)-2-(4-boronobutyl)piperidine-2-carboxylic acid]: the bioavailability in data set [1] (setting [6]) is 5.2%. In addition, in data set [1] (setting [7]), the area under the curve (AUC) came out at 1.1 µM·h, the concentration peaked (Cmax) at 640 nM and the Tmax is 0.75 h. In data set [1] (setting [2]), the clearance was 13.5 mL/min/kg and the Vd was 0.22 L/kg. Also, on Human Arginase 2, the IC50 amounted to 59 nM. For the same compound, at Human Arginase 1, the IC50 was found to be 80 nM.
In the case of `CC[C@H](C)[C@H](N)C(=O)N[C@H]1CCN[C@@](CCCCB(O)O)(C(=O)O)C1` [Example 7, (2R,4S)-4-[[(2S,3S)-2-amino-3-methyl-pentanoyl]amino]-2-(4-boronobutyl)piperidine-2-carboxylic acid], the figures for the IC50 at Human Arginase 2 and on Human Arginase 1 were 21 nM and 23 nM, respectively.
The corresponding values for `N[C@H]1CCN[C@](CCCCB(O)O)(C(=O)O)C1` (single isomer, unassigned; enantiomer 1) [Example 10, Anti-4-amino-2-(4-boronobutyl)piperidine-2-carboxylic acid enantiomer 1] are 53100 nM and 20100 nM.

The record behind these values is patent US12435097B2, “Arginase inhibitors and methods of use thereof” (AstraZeneca AB, priority 2019, dated 2025).
